# Experimental data taken from US12403200B2, “Methods and compositions for treating autoimmune diseases” (priority 2019, dated 2025).
# Key:
# C57BL/6 (CD45.2+) mice = test: MOG-induced EAE model with congenic transplant; type: in vivo, mouse
# Procedure: Experimental Autoimmune Encephalomyelitis (EAE) Model: C57BL/6 (CD45.2) mice were induced with MOG35-55 peptide in complete Freund's adjuvant, followed by the administration of pertussis toxin (PTX) at 4 h post MOG35-55 and 24 h post initial dose of PTX. Disease onset was around 9-12 days post induction. Animals were scored twice a day for a duration of 80 days post EAE induction. EAE Clinical Scoring Scale: 1-limp tail; 2-partial hind limb paralysis; 3-Complete hind limb paralysis; 4-Complete hind and partial front limb paralysis; 5-moribund bound. Animals were euthanized at 2 consecutive scores of 4. Terminal analysis of tissues (peripheral blood, lymph nodes) were evaluated to determine chimerism and immune component of the relapsing EAE mice. Lymph node cells were stimulated (S) with PMS/lonomycin (50 ng/mL) and Brefeldin A (1 μg/mL) or not stimulated (NS) and evaluated for T cell chimerism (donor, host) and IL-17 production.
# To induce EAE in a murine model, C57BL/6 (CD45.2+) mice were induced with MOG35_55 peptide in complete Freund's adjuvant, followed by the administration of pertussis toxin (PTX). […]
# [1] = Quintieri et al. 2005; cited from earlier work
Structure (SMILES),"Incidence (C57BL/6 (CD45.2+) mice; Table 3, EAE incidence, treatment groups of FIG. 5G)","Mean Time to EAE onset (C57BL/6 (CD45.2+) mice; Table 3, treatment groups of FIG. 5G)",peak disease score in active EAE (C57BL/6 (CD45.2+) mice; treatment at day 13),progression of disease activity in active EAE (C57BL/6 (CD45.2+) mice; treatment on day 10 or day 13),cytotoxicity relative to the parent nemorubicin [1]
"CCCCCCCCc1ccc(CCC(N)(CO)CO)cc1 [FTY-720, reference compound]",100%,12 days,2.3,halted disease,–
COc1cccc2c1C(=O)c1c(O)c3c(c(O)c1C2=O)C[C@@](O)(C(=O)CO)C[C@@H]3O[C@H]1CC2[C@H](O[C@@H]3[C@@H](OC)OCCN23)[C@H](C)O1 (some centres unmarked) [PNU-159682],–,–,–,–,greater than 3000 fold
